We go through 14 compounds from patent US12662451B2, “Chemical compounds and uses thereof” (GLAXOSMITHKLINE INTELLECTUAL PROPERTY (NO.4) LIMITED, priority 2023, dated 2026).

Structures are written as SMILES. Like-named read-outs stand apart in the source and are kept apart here.

Series [1] deals with T1, recombinant full-length WRN protein (1-1432) (Homo sapiens, UniProt Q14191).
T1 construct: recombinant full-length WRN protein (1-1432)
Briefly: WRN unwinding activity, fluorogenic 384-well assay (Example A). The format is biochemical. To be noted: WRN unwinding activity, 4 hr; Table 2; read-out: 4 hr UNW pIC50 (converted). In a few lines:
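Read-out is end-point unwinding of a fluorophore/quencher duplex (ex 525, em 598 nm) after 60 min with 200 μM ATP and 12 nM DNA (2× stocks), EDTA stop. Compound first sat 4 h with 200 pM WRN (2× stock) in pH 8.0 Tris buffer; four-parameter fit gives pIC50.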

Series [2] can be described thus: Cell culture media unbound percentage and stability by rapid equilibrium dialysis (Example C). The format is in vitro ADME. The following applies: bovine, cell assay medium (RPMI-1640 with 10% fetal bovine serum), pH 7.4, rapid equilibrium dialysis, 4 hours at 37° C., read-out: Cell Culture Media Binding (% unbound). In a few lines:
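Percent unbound in cell assay medium came from the LC-MS/MS receiver:donor peak area ratio, with stability taken as the 240 min over 0 min ratio. Set-up: 1 μM nominal compound in medium dialysed against pH 7.4 PBS (100 mM phosphate, 150 mM NaCl), 4 h, 37° C, shaken, in triplicate.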
In general terms: In equilibrium dialysis only unbound substance equilibrates across the membrane.

The subject of series [3] is SW48 human colorectal cancer cells. Briefly: Calculated free drug potency in SW48 cell assay, corrected with media free fraction (Example C). The format is cell-based. To be noted: Homo sapiens, SW48, SW48 pCC50 corrected with measured free fraction in cell assay media. A digest of the protocol:
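Free drug potency derives from correcting SW48 assay concentrations with the unbound fraction in medium. That fraction came from RED against pH 7.4 PBS, 1 μM nominal compound, 4 h at 37 °C, quantified by LC-MS/MS peak area ratios at T=240 versus T=0 min.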

Series [4] has as its system SW48 human colorectal cancer cells (MSI-H cancer cells). Nature of the series: SW48 cell viability, CellTiter-Glo, 120 hours (Example B). To be noted: Homo sapiens. A general note: ATP-based viability assays read luminescence as a measure of living cells.
Where [5] appears, read: SW48, 120 h, read-out: SW48 pCC50, SW48 cell viability, 120 hours incubation (converted), Table 2.
Where [6] appears, read: SW48, read-out: SW48 pCC50, measured potency from Example B, as repeated in Table 3 (converted).

T1 sequence (Q14191 whole entry): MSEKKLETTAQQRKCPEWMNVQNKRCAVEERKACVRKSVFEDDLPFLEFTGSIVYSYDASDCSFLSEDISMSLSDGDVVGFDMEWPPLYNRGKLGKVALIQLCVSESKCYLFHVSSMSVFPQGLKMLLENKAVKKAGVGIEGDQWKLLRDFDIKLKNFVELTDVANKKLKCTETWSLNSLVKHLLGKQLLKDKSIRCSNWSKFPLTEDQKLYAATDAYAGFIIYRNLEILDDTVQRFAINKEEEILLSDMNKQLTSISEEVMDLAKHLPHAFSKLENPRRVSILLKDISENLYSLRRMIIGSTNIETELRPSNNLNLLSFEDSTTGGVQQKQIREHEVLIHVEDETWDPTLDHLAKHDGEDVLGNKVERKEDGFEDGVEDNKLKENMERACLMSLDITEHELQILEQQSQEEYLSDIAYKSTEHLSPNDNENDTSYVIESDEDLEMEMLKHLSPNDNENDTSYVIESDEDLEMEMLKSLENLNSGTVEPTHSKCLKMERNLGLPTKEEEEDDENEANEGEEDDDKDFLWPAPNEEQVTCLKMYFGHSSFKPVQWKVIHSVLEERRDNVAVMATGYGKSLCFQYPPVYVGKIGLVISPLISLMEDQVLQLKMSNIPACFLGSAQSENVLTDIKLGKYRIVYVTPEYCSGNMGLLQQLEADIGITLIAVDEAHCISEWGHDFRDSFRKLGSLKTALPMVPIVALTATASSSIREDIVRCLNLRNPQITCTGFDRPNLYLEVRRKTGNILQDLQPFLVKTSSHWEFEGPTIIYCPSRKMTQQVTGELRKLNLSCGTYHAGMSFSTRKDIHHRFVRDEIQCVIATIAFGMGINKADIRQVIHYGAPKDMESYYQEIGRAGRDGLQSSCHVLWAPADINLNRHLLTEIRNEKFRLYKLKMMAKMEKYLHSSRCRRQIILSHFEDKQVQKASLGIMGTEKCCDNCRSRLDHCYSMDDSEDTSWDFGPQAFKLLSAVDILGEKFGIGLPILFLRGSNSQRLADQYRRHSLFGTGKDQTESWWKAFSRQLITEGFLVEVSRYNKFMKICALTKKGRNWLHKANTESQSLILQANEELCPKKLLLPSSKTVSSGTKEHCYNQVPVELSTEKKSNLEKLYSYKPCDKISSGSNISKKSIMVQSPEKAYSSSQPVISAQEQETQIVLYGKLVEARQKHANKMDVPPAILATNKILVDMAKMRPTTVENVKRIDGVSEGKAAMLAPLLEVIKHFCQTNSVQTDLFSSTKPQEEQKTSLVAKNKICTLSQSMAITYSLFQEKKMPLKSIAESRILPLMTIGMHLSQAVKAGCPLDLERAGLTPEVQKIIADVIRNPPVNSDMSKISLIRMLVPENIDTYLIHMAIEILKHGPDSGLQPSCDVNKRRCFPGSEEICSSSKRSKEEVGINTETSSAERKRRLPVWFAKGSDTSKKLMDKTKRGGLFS

As for `CN(c1ccc([C@H]2CCC[C@@H](C(=O)Nc3ccc(C(F)(F)F)cc3F)[C@@H]2C(=O)O)cc1)S(=O)(=O)c1ccc2ccn(C)c2c1` [Example 110, (1R,2S,6R)-2-(4-((N,1-dimethyl-1H-indole)-6-sulfonamido)phenyl)-6-((2-fluoro-4-(trifluoromethyl)phenyl)carbamoyl)cyclohexane-1-carboxylic acid], the IC50 in series [1] is 3.98 nM. The fraction unbound at 4 h, 1 µM in series [2] amounted to 0.0085. Further, the CC50 is 10.7 nM in series [3], 1260 nM in series [4] (setting [5]) and 1260 nM in series [4] (setting [6]).
For `CN(c1ccc([C@H]2CCC[C@@H](C(=O)Nc3ccc(C(F)(F)F)cc3F)[C@@H]2C(=O)O)cc1)S(=O)(=O)c1ccc2c(c1)OCC2` [Example 112, (1R,2R,6S)-2-((2-fluoro-4-(trifluoromethyl)phenyl)carbamoyl)-6-(4-((N-methyl-2,3-dihydrobenzofuran)-6-sulfonamido)phenyl)cyclohexane-1-carboxylic acid], in series [1], the IC50 is 2.51 nM. In addition, in series [2], the fraction unbound at 4 h, 1 µM is 0.0405. For the same compound, the results for the CC50 in series [3], in series [4] (setting [5]) and in series [4] (setting [6]) were 32.4 nM, 794 nM and 794 nM, respectively.
Take `CN(c1ccc([C@H]2CCC[C@@H](C(=O)Nc3ccc(C(F)(F)F)cc3F)[C@@H]2C(=O)O)cc1)S(=O)(=O)c1cccc(C2CNC(=O)C2)c1` (stereo partly drawn) [Example 113, (1R,2R,6S)-2-((2-fluoro-4-(trifluoromethyl)phenyl)carbamoyl)-6-(4-((N-methyl-3-(5-oxopyrrolidin-3-yl)phenyl)sulfonamido)phenyl)cyclohexane-1-carboxylic acid]: the IC50 in series [1] was 1.58 nM. Besides, the fraction unbound at 4 h, 1 µM in series [2] amounted to 0.0899. In addition, the values for the CC50 in series [3], in series [4] (setting [5]) and in series [4] (setting [6]) were 56.2 nM, 631 nM and 631 nM, respectively.
As to `CN1CCC[C@@H](c2cccc(S(=O)(=O)N(C)c3ccc([C@H]4CCC[C@@H](C(=O)Nc5ccc(C(F)(F)F)cc5F)[C@@H]4C(=O)O)cc3)c2)C1` [Example 116, (1R,2R,6S)-2-((2-fluoro-4-(trifluoromethyl)phenyl)carbamoyl)-6-(4-((N-methyl-3-((S)-1-methylpiperidin-3-yl)phenyl)sulfonamido)phenyl)cyclohexane-1-carboxylic acid], the IC50 in series [1] is 1.58 nM. The fraction unbound at 4 h, 1 µM in series [2] came to 0.286. Also, the CC50 was 145 nM in series [3], 501 nM in series [4] (setting [5]) and 501 nM in series [4] (setting [6]).
Take `CN(c1ccc([C@H]2CCC[C@@H](C(=O)Nc3ccc(C(F)(F)F)cc3F)[C@@H]2C(=O)O)cc1)S(=O)(=O)c1cccc(C(=O)N2CCOCC2)c1` [Example 119, (1R,2R,6S)-2-((2-fluoro-4-(trifluoromethyl)phenyl)carbamoyl)-6-(4-((N-methyl-3-(morpholine-4-carbonyl)phenyl)sulfonamido)phenyl)cyclohexane-1-carboxylic acid]: the IC50 in series [1] was 1.58 nM. Also, the fraction unbound at 4 h, 1 µM in series [2] came to 0.231. For the same compound, the CC50 in series [3] is 229 nM; in series [4] (setting [5]) it was 1000 nM; in series [4] (setting [6]) it was 1000 nM.
Turning to `CN(c1ccc([C@H]2CCC[C@@H](C(=O)Nc3ccc(C(F)(F)F)cc3F)[C@@H]2C(=O)O)cc1)S(=O)(=O)c1cccc(C2CC2(F)F)c1` (stereo partly drawn) [Example 120, (1R,2S,6R)-2-(4-((3-(2,2-difluorocyclopropyl)-N-methylphenyl)sulfonamido)phenyl)-6-((2-fluoro-4-(trifluoromethyl)phenyl)carbamoyl)cyclohexane-1-carboxylic acid], the IC50 in series [1] is 10 nM. Further, the fraction unbound at 4 h, 1 µM in series [2] stood at 0.0107. Also, the CC50 is 33.9 nM in series [3], 3160 nM in series [4] (setting [5]) and 3160 nM in series [4] (setting [6]).
With `CN(C)c1nc2cc(S(=O)(=O)N(C)c3ccc([C@H]4CCC[C@@H](C(=O)Nc5ccc(C(F)(F)F)cc5F)[C@@H]4C(=O)O)cc3)ccc2n1C` [Example 121, (1R,2S,6R)-2-(4-((2-(dimethylamino)-N, 1-dimethyl-1H-benzo[d]imidazole)-5-sulfonamido)phenyl)-6-((2-fluoro-4-(trifluoromethyl)phenyl)carbamoyl)cyclohexane-1-carboxylic acid], the IC50 in series [1] was 3.16 nM. For the same compound, the fraction unbound at 4 h, 1 µM in series [2] was 0.0195. The results for the CC50 in series [3], in series [4] (setting [5]) and in series [4] (setting [6]) were 6.17 nM, 316 nM and 316 nM, respectively.
As to `CN1CCOc2ccc(S(=O)(=O)N(C)c3ccc([C@H]4CCC[C@@H](C(=O)Nc5ccc(C(F)(F)F)cc5F)[C@@H]4C(=O)O)cc3)cc21` [Example 122, (1R,2S,6R)-2-(4-((N,4-dimethyl-3,4-dihydro-2H-benzo[b][1,4]oxazine)-6-sulfonamido)phenyl)-6-((2-fluoro-4-cyclohe(trifluoromethyl)phenyl)carbamoyl)xane-1-carboxylic acid], the IC50 in series [1] was 7.94 nM. Also, in series [2], the fraction unbound at 4 h, 1 µM came out at 0.0056. Also, the figures for the CC50 in series [3], in series [4] (setting [5]) and in series [4] (setting [6]) were 5.62 nM, 1000 nM and 1000 nM, respectively.
As for `CN1CCN(C)c2cc(S(=O)(=O)N(C)c3ccc([C@H]4CCC[C@@H](C(=O)Nc5ccc(C(F)(F)F)cc5F)[C@@H]4C(=O)O)cc3)ccc21` [Example 123, (1R,2R,6S)-2-((2-fluoro-4-(trifluoromethyl)phenyl)carbamoyl)-6-(4-((N,1,4-trimethyl-1,2,3,4-tetrahydroquinoxaline)-6-sulfonamido)phenyl)cyclohexane-1-carboxylic acid], the IC50 in series [1] was 3.98 nM. The fraction unbound at 4 h, 1 µM in series [2] came to 0.0071. For the same compound, the results for the CC50 in series [3], in series [4] (setting [5]) and in series [4] (setting [6]) were 3.55 nM, 501 nM and 501 nM, respectively.
With `Cc1nc2cc(S(=O)(=O)N(C)c3ccc([C@H]4CCC[C@@H](C(=O)Nc5ccc(C(F)(F)F)cc5F)[C@@H]4C(=O)O)cc3)cnc2n1C` [Example 124, (1R,2R,6S)-2-((2-fluoro-4-(trifluoromethyl)phenyl)carbamoyl)-6-(4-((N,2,3-trimethyl-3H-imidazo[4,5-b]pyridine)-6-sulfonamido)phenyl)cyclohexane-1-carboxylic acid], the IC50 in series [1] is 3.98 nM. Further, the fraction unbound at 4 h, 1 µM in series [2] amounted to 0.097. For the same compound, the CC50 in series [3] was 49 nM; in series [4] (setting [5]) it was 501 nM; in series [4] (setting [6]), 501 nM.
In the case of `Cc1nc2cc(S(=O)(=O)N(C)c3ccc([C@H]4CCC[C@@H](C(=O)Nc5ccc(C(F)(F)F)cc5F)[C@@H]4C(=O)O)cc3)ncc2n1C` [Example 125, (1R,2R,6S)-2-((2-fluoro-4-(trifluoromethyl)phenyl)carbamoyl)-6-(4-((N,2,3-trimethyl-3H-imidazo[4,5-c]pyridine)-6-sulfonamido)phenyl)cyclohexane-1-carboxylic acid], the IC50 in series [1] is 2 nM. For the same compound, the fraction unbound at 4 h, 1 µM in series [2] is 0.0433. The values for the CC50 in series [3], in series [4] (setting [5]) and in series [4] (setting [6]) were 69.2 nM, 1580 nM and 1580 nM, respectively.
With `Cc1nc2cc(S(=O)(=O)N(C)c3ccc([C@H]4CCC[C@@H](C(=O)Nc5ccc(C(F)(F)F)cc5F)[C@@H]4C(=O)O)cc3)cc(F)c2n1C` [Example 126, (1R,2R,6S)-2-((2-fluoro-4-(trifluoromethyl)phenyl)carbamoyl)-6-(4-((7-fluoro-N, 1,2-trimethyl-1H-benzo[d]imidazole)-5-sulfonamido)phenyl)cyclohexane-1-carboxylic acid], the IC50 in series [1] is 6.31 nM. Besides, the fraction unbound at 4 h, 1 µM in series [2] came to 0.058. Besides, the CC50 is 36.3 nM in series [3], 631 nM in series [4] (setting [5]) and 631 nM in series [4] (setting [6]).
As for `Cc1nc2cc(S(=O)(=O)N(C)c3ccc([C@H]4CCC[C@@H](C(=O)Nc5ccc(C(F)(F)F)cc5F)[C@@H]4C(=O)O)cc3)c(F)cc2n1C` [Example 127, (1R,2R,6S)-2-((2-fluoro-4-(trifluoromethyl)phenyl)carbamoyl)-6-(4-((6-fluoro-N,1,2-trimethyl-1H-benzo[d]imidazole)-5-sulfonamido)phenyl)cyclohexane-1-carboxylic acid], in series [1], the IC50 is 3.98 nM. Also, the fraction unbound at 4 h, 1 µM in series [2] was 0.0443. The CC50 was 44.7 nM in series [3], 1000 nM in series [4] (setting [5]) and 1000 nM in series [4] (setting [6]).
In the case of `Cc1nc2c(F)c(S(=O)(=O)N(C)c3ccc([C@H]4CCC[C@@H](C(=O)Nc5ccc(C(F)(F)F)cc5F)[C@@H]4C(=O)O)cc3)ccc2n1C` [Example 128, (1R,2R,6S)-2-((2-fluoro-4-(trifluoromethyl)phenyl)carbamoyl)-6-(4-((4-fluoro-N,1,2-trimethyl-1H-benzo[d]imidazole)-5-sulfonamido)phenyl)cyclohexane-1-carboxylic acid], the IC50 in series [1] was 3.98 nM. For the same compound, the fraction unbound at 4 h, 1 µM in series [2] amounted to 0.0452. Besides, the CC50 in series [3] is 45.7 nM; in series [4] (setting [5]) it was 1000 nM; in series [4] (setting [6]), 1000 nM.
